{
  "source": "patent US20150025131A1",
  "about": "(priority 2013, published 2015)",
  "key": {"[1]": {"experiment": "MTT cytotoxicity assay, CC1", "assay_type": "cell-based", "details": "rat, CC1 rat epithelial liver cells, 48 h incubation, read-out: Cytotoxicity (IC50 μg/mL) CC1 cells", "protocol": "Cell cytotoxicity assay was performed using three different cell lines NIH 3T3 (mouse embryo, fibroblast cells), CC1 (rat, epithelial, liver cell) and MDBK (bovine kidney) cells using MTT (3-[4,5-dimethylthiazole-2-yl]-2,5-diphenyl-tetrazolium bromide) colorimetric assay. Briefly 3T3 were grown in DMEM, supplemented with 10% of fetal bovine serum (FBS), and 1% penicillin-streptomycin whereas CC1 (rat epithelial liver cells) were cultured in EMEM, 2 mM Glutamine, 1% Non-Essential Amino Acids (NEAA), 20 mM HEPES, 10% Foetal Bovine Serum (FBS) and 1% penicillin-streptomycin, and MDBK cells were grown in 10% of fetal bovine serum (FBS) in 75 cm^2 flask, and incubated in 5% CO2 incubator at 37° C. until they attain 70% confluency. Cells were then harvested by centrifuging at 200 g for 5 min at 25° C., counted using heamocytometer and their concentration was adjusted to 6×10^4 cells/mL. 100 μL of Cells were then plated in 96 well plate and incubated overnight. Next day the supernatant was carefully removed and 200 μL of fresh medium was added with three different concentration of compound (1, 10, 50) μg/mL. […] The extent of MTT reduction to formazan within cells was calculated by measuring the absorbance at 540 nm; using a micro plate reader (Spectra Max plus 340, Molecular Devices, Calif., USA). […] The percent inhibition was calculated by using the following formula: […]"}, "[2]": {"tested_on": "ROS production from human peripheral whole blood phagocytes", "experiment": "Luminol enhanced chemiluminescence oxidative burst, whole blood", "assay_type": "cell-based", "protocol": "Intracellular effect was determined using human peripheral whole blood phagocytes and isolated neutrophils and from mice peritoneum macrophages, where luminol-enhanced chemillumenescence assay was applied. The effect on myeloperoxidase independent ROS production was determined using lucigenin on murine macrophages RAW.267 cells.\nTable 2. […] 267 cells (murine macrophages). DPI is used as standard drug. Reading presents mean±SD of three determinations.\nLuminol enhanced chemiluminescence technique was applied to study the effect of compound on ROS from phagocytes, Using whole blood, neutrophil and macrophages Briefly, 25 μL diluted whole blood (1:50 dilution in sterile HBSS^++) or 25 μL of PMNs (1×10^6), or 25 μL of isolated macrophages (1×10^6) were incubated with 25 μL of compound in triplicates and using three different concentrations (1, 10 and 100 μg/mL) using white 96 wells plates. Wells received HBSS^++ and cells only without compound served as positive control. 25 μL of serum opsonized zymosan-A (SOZ), followed by 25 μL luminol (7×10^−5 M), was added to each well to maintain a volume of 100 μL/well. Plates were then incubated at 37° C. for 30 minutes in the thermostated chamber of the luminometer. Results were monitored as relative light unit (RLU) reading, with peak and total integral values set with repeated scans at 60 seconds intervals, and 1 second points measuring time."}, "[3]": {"tested_on": "non-activated Jurkat cell proliferation", "experiment": "Jurkat T cell proliferation", "assay_type": "cell-based", "details": "Homo sapiens; non-activated Jurkat cells; read-out: Jurkat T cell Proliferation (IC50 μg /mL)", "protocol": "In order to monitor the effect of this compound on cellular immune response particularly on T cells, the compound was tested on thymidine incorporated T cell proliferation assay."}, "IL-2 production": {"tested_on": "IL-2 production", "experiment": "IL-2 cytokine production", "assay_type": "cell-based", "details": "read-out: IL-2 inhibition (IC50 μg/mL)"}, "serum TNF-α": {"tested_on": "serum TNF-α", "experiment": "Adjuvant induced arthritis model, serum TNF-α", "assay_type": "in vivo, Sprague Dawley rats", "details": "AIA rats, daily intraperitoneal; Patuletin 25 mg/kg, indomethacin 5 mg/kg", "protocol": "(§1) All studies were carried out using Female Sprague Dawley (SD) rats weighing 150-250 gms. Animals were kept at 21±2° C. and on a 12-h light/dark cycle, received standardized pelleted diet and tap water. Experiments were performed under the ethical guidelines of the International Association for the study of pain in conscious animals. Each group contains 12 animals with randomly distributed weights into each treatment group.\nArthritis was induced by injecting freshly prepared 100 μL of 1 mg suspension of lyophilized Mycobacterium tuberculosis H37Ra (MT H37Ra; DIFCO Laboratories, Detroit, Mich., USA), subcutaneously at the rat tail base using sterile hypodermic needle. Inoculation was carried out under anesthesia with a combination of 20 mg/kg ketamine and 5 mg/kg xylazine, injected intraperitoneally. Compound and the reference drug were administered daily, intraperitoneally using sterile syringes. The positive control received vehicle (5% DMSO+PBS) or saline only; treatment groups received test compounds (25 mg/kg), whereas reference group received indomethacin (5 mg/kg). The doses of the test compounds were selected after preliminary dose finding studies. […]\nThe quantitative measurement of TNF-α and IL-1β was done in serum of all groups of animals including arthritic and non-arthritic using commercial ELISA assay kits (Abcam, USA) according to the manufacturer's instructions. […]"}, "serum peroxide": {"tested_on": "serum peroxide", "experiment": "Adjuvant induced arthritis model, serum peroxide", "assay_type": "in vivo, Sprague Dawley rats", "details": "AIA rats, daily intraperitoneal; Patuletin 25 mg/kg, indomethacin 5 mg/kg", "protocol": "as §1\nArthritis was induced by injecting freshly prepared 100 μL of 1 mg suspension of lyophilized Mycobacterium tuberculosis H37Ra (MT H37Ra; DIFCO Laboratories, Detroit, Mich., USA), subcutaneously at the rat tail base using sterile hypodermic needle. […]\nPeroxide (PO) and nitric oxide (NO), in serum were determined in the serum samples of both the normal and arthritic groups, using quantitative colorimetric assay kits, i.e., the Quantichrom ™ Nitric Oxide Assay Kit, and the Quantichrome™ Peroxide assay kit Diox-250 (BioAssay Systems, Hayward, Calif., USA). […] The samples were analyzed in duplicates using 96-well plate and the plate was read at 540 nm. The Quantichrome™ Peroxide assay kit Diox −250 system is an improved method which utilizes the oxidation of Fe^++ by peroxide present in the analyzed sample resulting in formation of purple complex that gives the accurate measure of peroxide level in the sample when read at 540-610 nm."}},
  "note": "“Also recorded” adds a separate entry of the source. Read-outs that look alike come from different tables or passages of the source.",
  "data": [
    {"smiles": "COc1c(O)cc2oc(-c3ccc(O)c(O)c3)c(O)c(=O)c2c1O", "note": "[Patuletin, 3,5,7,3′,4′-pentahydroxy-6-methoxy flavones]", "values": [
      {"measurement": "IC50 at 48 h", "setting": "[1]", "result": 5.2, "unit": "µg/mL"},
      {"measurement": "IC50", "setting": "[2]; luminol enhanced, serum opsonized zymosan, read-out: Myeloperoxidase dependent Oxidative Burst (IC50 μg/mL) Whole blood", "result": "3.5 ± 0.5", "unit": "µg/mL"},
      {"measurement": "IC50", "setting": "[2]; read-out: suppression of ROS production from whole blood (IC50), unit inferred", "result": 3.5, "unit": "µg/mL"},
      {"measurement": "IC50", "setting": "[3]", "result": 3.47, "unit": "µg/mL"},
      {"measurement": "IC50", "setting": "IL-2 production", "result": 14.8, "unit": "µg/mL"},
      {"measurement": "level of TNF-α in serum versus arthritic control group", "setting": "serum TNF-α", "result": "marked decrease"},
      {"measurement": "level of peroxide in serum versus arthritic control group", "setting": "serum peroxide", "result": "decrease; also recorded: non-significant reduction"}
    ]}
  ]
}
